This is an account of results in ChEMBL document CHEMBL4610065, “Isolation and Structural Characterization of Specific Bacterial β-Glucuronidase Inhibitors from Noni (Morinda citrifolia) Fruits” (J Nat Prod, 2020).

Calls of active or inactive are those of the source. No cut-off for these calls is given here.

Series [1] deals with T1, Pancreatic triacylglycerol lipase (Sus scrofa, UniProt P00591).
T1 sequence (P00591 whole entry): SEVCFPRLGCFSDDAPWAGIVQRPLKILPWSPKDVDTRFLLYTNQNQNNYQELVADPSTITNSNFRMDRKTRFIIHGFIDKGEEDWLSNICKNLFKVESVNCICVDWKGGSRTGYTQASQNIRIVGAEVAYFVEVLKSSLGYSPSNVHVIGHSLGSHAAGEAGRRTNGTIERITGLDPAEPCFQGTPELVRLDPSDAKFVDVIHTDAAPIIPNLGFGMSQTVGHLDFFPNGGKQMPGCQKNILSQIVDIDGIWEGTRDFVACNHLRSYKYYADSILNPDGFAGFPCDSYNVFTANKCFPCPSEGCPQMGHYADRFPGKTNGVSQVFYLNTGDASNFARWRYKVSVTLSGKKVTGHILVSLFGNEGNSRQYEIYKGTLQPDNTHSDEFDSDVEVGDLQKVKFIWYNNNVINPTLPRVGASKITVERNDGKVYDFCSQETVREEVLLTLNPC
Kind of series: Inhibition of porcine pancreatic lipase at 5 ug/ml using 4-MU oleate as substrate incubated for 30 min by fluorescence method relative to control. The following applies: pig, 0.5 h.

For series [2], the target named is T1, Pancreatic triacylglycerol lipase. The experiment in a line: Inhibition of porcine pancreatic lipase up to 1 mg/ml using 4-MU oleate as substrate incubated for 30 min by fluorescence method relative to control. The following applies: pig, 0.5 h.
Series [3] deals with Beta-glucuronidase (Escherichia coli (strain K12), UniProt P05804). Kind of series: Inhibition of Escherichia coli beta-glucuronidase using 4-methylumbelliferyl-beta-D-glucuronide hydrate as substrate preincubated for 5 mins followed by substrate addition and measured after 30 mins by fluorescence method.
Series [4] addresses Beta-glucuronidase (Escherichia coli (strain K12)) (UniProt P05804). The experiment in a line: Potency index, ratio of DSA IC50 to compound IC50 for inhibition of Escherichia coli beta-glucuronidase using 4-methylumbelliferyl-beta-D-glucuronide hydrate as substrate preincubated for 5 mins followed by substrate addition and measured after 30 mins by fluorescence method.
For series [5], the species on record is Rattus norvegicus. The experiment in a line: Inhibition of rat intestinal alpha-glucosidase at 1 mg/ml using pNPG as substrate preincubated for 3 mins followed by substrate addition and measured after 30 mins relative to control.
The species entered for series [6] is Rattus norvegicus. Kind of series: Inhibition of rat intestinal alpha-glucosidase at 0.5 mg/ml using pNPG as substrate preincubated for 3 mins followed by substrate addition and measured after 30 mins.
Series [7] addresses T1, Pancreatic triacylglycerol lipase. The experiment in a line: Inhibition of porcine pancreatic lipase at 0.1 mg/ml using 4-MU oleate as substrate incubated for 30 min by fluorescence method relative to control. The following applies: pig, 0.5 h.
The target of series [8] is T2, Pancreatic alpha-amylase (Sus scrofa, UniProt P00690).
T2 sequence (P00690 whole entry): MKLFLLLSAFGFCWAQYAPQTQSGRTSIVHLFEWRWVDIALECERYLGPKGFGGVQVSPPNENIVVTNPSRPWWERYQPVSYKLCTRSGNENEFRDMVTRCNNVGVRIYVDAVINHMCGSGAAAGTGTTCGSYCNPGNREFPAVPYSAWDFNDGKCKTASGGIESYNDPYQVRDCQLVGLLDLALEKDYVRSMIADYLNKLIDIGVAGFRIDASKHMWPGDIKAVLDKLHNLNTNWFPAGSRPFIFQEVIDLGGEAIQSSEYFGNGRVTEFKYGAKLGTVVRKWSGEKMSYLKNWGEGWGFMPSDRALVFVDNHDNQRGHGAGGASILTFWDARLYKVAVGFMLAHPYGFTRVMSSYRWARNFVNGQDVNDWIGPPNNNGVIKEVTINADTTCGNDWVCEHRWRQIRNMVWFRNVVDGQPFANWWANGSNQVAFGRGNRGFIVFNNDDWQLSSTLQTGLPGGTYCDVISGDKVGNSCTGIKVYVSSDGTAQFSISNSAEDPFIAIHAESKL
The experiment in a line: Inhibition of porcine pancreatic alpha-amylase at 1 mg/ml using potato starch as substrate preincubated for 5 mins followed by substrate addition and measured after 3 mins by DNS method relative to control. The following applies: pig, 0.05 h.

Series [9] has as its target T2, Pancreatic alpha-amylase. Kind of series: Inhibition of porcine pancreatic alpha-amylase at 0.1 to 0.5 mg/ml using potato starch as substrate preincubated for 5 mins followed by substrate addition and measured after 3 mins by DNS method. The following applies: pig, 0.05 h.
For series [10], the species on record is Rattus norvegicus. Kind of series: Inhibition of rat intestinal alpha-glucosidase at 0.02 mM using pNPG as substrate preincubated for 3 mins followed by substrate addition and measured after 30 mins relative to control.
In series [11] the target is T2, Pancreatic alpha-amylase. The experiment in a line: Inhibition of porcine pancreatic alpha-amylase at 10 ug/ml using potato starch as substrate preincubated for 5 mins followed by substrate addition and measured after 3 mins by DNS method relative to control. The following applies: pig, 0.05 h.

Sequence of Beta-glucuronidase (Escherichia coli (strain K12)) (P05804 whole entry, looked up): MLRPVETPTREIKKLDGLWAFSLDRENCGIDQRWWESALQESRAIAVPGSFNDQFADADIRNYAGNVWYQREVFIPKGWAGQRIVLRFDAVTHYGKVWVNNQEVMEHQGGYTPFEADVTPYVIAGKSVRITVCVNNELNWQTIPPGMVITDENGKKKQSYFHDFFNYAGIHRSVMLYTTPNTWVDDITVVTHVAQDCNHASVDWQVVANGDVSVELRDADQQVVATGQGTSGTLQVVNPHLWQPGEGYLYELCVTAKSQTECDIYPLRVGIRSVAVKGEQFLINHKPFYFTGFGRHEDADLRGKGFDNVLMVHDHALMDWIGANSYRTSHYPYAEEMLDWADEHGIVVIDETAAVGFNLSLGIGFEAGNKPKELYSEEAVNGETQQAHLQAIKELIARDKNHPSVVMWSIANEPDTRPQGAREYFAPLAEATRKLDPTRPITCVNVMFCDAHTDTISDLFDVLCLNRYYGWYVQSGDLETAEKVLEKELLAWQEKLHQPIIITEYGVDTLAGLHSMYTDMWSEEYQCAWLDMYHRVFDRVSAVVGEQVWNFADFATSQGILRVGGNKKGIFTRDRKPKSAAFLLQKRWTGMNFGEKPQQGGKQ
Sequence of Beta-glucuronidase (P05804 whole entry): as the sequence (P05804 whole entry, looked up) above

Consider `CCCCCCCCCCC[C@@H](C[C@@H]1OC(=O)[C@H]1CCCCCC)OC(=O)[C@H](CC(C)C)NC=O` [ORLISTAT], for which, in [1], the “inhibition (INH)” value was determined as 96%.
For `OC[C@H]1Oc2ccc([C@@H]3OC[C@@H]4[C@H]3CO[C@H]4c3ccc4c(c3)O[C@H](c3ccc(O)c(O)c3)[C@@H](CO)O4)cc2O[C@@H]1c1ccc(O)c(O)c1`, the inhibition (INH) in series [2] was 85 to 93%; in series [7], less than 56%; in series [8], 21%; in [9] it was “Not Active”. This molecule also gave an IC50 in [3] of 0.62 µM. In series [4], the Ratio IC50 was 3.5 to 39.5. Further, the inhibition result in series [5] and in series [6] was “inactive” in each case.
As for `OC/C=C/c1ccc2c(c1)O[C@H](c1ccc3c(c1)O[C@@H](c1ccc(O)c(O)c1)[C@H](CO)O3)[C@@H](CO)O2`, the inhibition (INH) was 85 to 93% in [2], less than 56% in series [7] and “Not Active” in [9]. In series [3], this molecule came in with an IC50 of 6.91 µM. For the same molecule, the Ratio IC50 in [4] was in the range of 3.5 to 39.5. Also, in series [5], the inhibition came to 12%. Also, in [6], the inhibition entry was “inactive”.
Molecule `O=C(O)[C@@H](O)[C@H]1OC(=O)[C@H](O)[C@H]1O` gave an IC50 in series [3] of 24.3 µM. In other words, the double-digit micromolar range.
Take `OC/C=C/c1ccc2c(c1)O[C@@H](CO)[C@H](c1ccc3c(c1)O[C@H](CO)[C@@H](c1ccc(O)c(O)c1)O3)O2`: the inhibition (INH) in series [2] is 85 to 93%; in series [7], less than 56%; in series [8], 21%; in [9], “Not Active”. Further, the IC50 in series [3] was 4.02 µM. For the same molecule, the Ratio IC50 in series [4] is 3.5 to 39.5. The inhibition result in series [5] and in series [6] was “inactive” throughout.
For the molecule `OC[C@@H]1Oc2cc([C@@H]3OC[C@@H]4[C@H]3CO[C@H]4c3ccc4c(c3)O[C@@H](CO)[C@H](c3ccc(O)c(O)c3)O4)ccc2O[C@H]1c1ccc(O)c(O)c1`, the inhibition (INH) in [2] is 85 to 93%; in series [7] it was less than 56%; in [8] it was 21%; in series [9], “Not Active”. In series [3], the IC50 was determined as 0.95 µM. Further, the Ratio IC50 in series [4] lay in the range of 3.5 to 39.5. The inhibition result in series [5] and in series [6] was “inactive” each time.
`C[C@H]1O[C@H](O[C@H]2[C@H](O)[C@@H](O)[C@@H](O[C@H]3[C@H](O)[C@@H](O)C(O)O[C@@H]3CO)O[C@@H]2CO)[C@H](O)[C@@H](O)[C@@H]1N[C@H]1C=C(CO)[C@@H](O)[C@H](O)[C@H]1O` (stereo not given in full) [ACARBOSE] came in with an inhibition in series [10] of 80%. For the same molecule, the “inhibition (INH)” value in [11] was determined as 94%.
